Source: patent US8969516B2, “Method of hydrolysis of peptide bond” (priority 2006, dated 2015)

Test: MALDI-TOF screening of Ni^2+ dependent hydrolysis in a combinatorial peptide library
Type: physicochemical
Conditions: CH3CO-Gly-Ala-Ser-X-His-Z-Lys-Phe-Leu-NH2 library, Ni^2+ 2 mM, pH 8.2, 10 mM Tris, score=24/tm
In short: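 The screen used 1 mM peptide mixtures in 10 mM Tris, pH 8.2, with 2 mM Ni2+ at two temperatures, 37 °C and 45 °C. Product appearance and substrate decline were monitored visually by MALDI-TOF over 8 h. Scores for X and Z were then summed by row and column to rank substitutions.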

Ac-GASTHHKFL-NH2 [STHH]
hydrolysis score from MALDI-TOF screening (37° C.): 0 (a score of 0 if no trace of the product of hydrolysis was seen after 8 hours of incubation) | hydrolysis score from MALDI-TOF screening (45° C.): 3 (a score of 3 for detection at 8 hours)

Ac-GASTHIKFL-NH2 [STHI]
hydrolysis score from MALDI-TOF screening (37° C.): 4 (a score of 4 for detection at 6 hours) | hydrolysis score from MALDI-TOF screening (45° C.): 6 (a score of 6 for detection at 4 hours)

Ac-GASTHKKFL-NH2 [STHK]
hydrolysis score from MALDI-TOF screening (37° C.): 3 (a score of 3 for detection at 8 hours) | hydrolysis score from MALDI-TOF screening (45° C.): 6 (a score of 6 for detection at 4 hours)

Ac-GASTHLKFL-NH2 [STHL]
hydrolysis score from MALDI-TOF screening (37° C.): 4 (a score of 4 for detection at 6 hours) | hydrolysis score from MALDI-TOF screening (45° C.): 6 (a score of 6 for detection at 4 hours)

Ac-GASTHMKFL-NH2 [STHM]
hydrolysis score from MALDI-TOF screening (37° C.): 0 (a score of 0 if no trace of the product of hydrolysis was seen after 8 hours of incubation) | hydrolysis score from MALDI-TOF screening (45° C.): 0 (a score of 0 if no trace of the product of hydrolysis was seen after 8 hours of incubation)

Ac-GASTHNKFL-NH2 [STHN]
hydrolysis score from MALDI-TOF screening (37° C.): 0 (a score of 0 if no trace of the product of hydrolysis was seen after 8 hours of incubation) | hydrolysis score from MALDI-TOF screening (45° C.): 0 (a score of 0 if no trace of the product of hydrolysis was seen after 8 hours of incubation)

Ac-GASTHPKFL-NH2 [STHP]
hydrolysis score from MALDI-TOF screening (37° C.): 0 (a score of 0 if no trace of the product of hydrolysis was seen after 8 hours of incubation) | hydrolysis score from MALDI-TOF screening (45° C.): 0 (a score of 0 if no trace of the product of hydrolysis was seen after 8 hours of incubation)

Ac-GASTHQKFL-NH2 [STHQ]
hydrolysis score from MALDI-TOF screening (37° C.): 0 (a score of 0 if no trace of the product of hydrolysis was seen after 8 hours of incubation) | hydrolysis score from MALDI-TOF screening (45° C.): 0 (a score of 0 if no trace of the product of hydrolysis was seen after 8 hours of incubation)

Ac-GASTHRKFL-NH2 [STHR]
hydrolysis score from MALDI-TOF screening (37° C.): 3 (a score of 3 for detection at 8 hours) | hydrolysis score from MALDI-TOF screening (45° C.): 6 (a score of 6 for detection at 4 hours)

Ac-GASTHSKFL-NH2 [STHS]
hydrolysis score from MALDI-TOF screening (37° C.): 0 (a score of 0 if no trace of the product of hydrolysis was seen after 8 hours of incubation) | hydrolysis score from MALDI-TOF screening (45° C.): 0 (a score of 0 if no trace of the product of hydrolysis was seen after 8 hours of incubation)

Ac-GASTHTKFL-NH2 [STHT]
hydrolysis score from MALDI-TOF screening (37° C.): 0 (a score of 0 if no trace of the product of hydrolysis was seen after 8 hours of incubation) | hydrolysis score from MALDI-TOF screening (45° C.): 0 (a score of 0 if no trace of the product of hydrolysis was seen after 8 hours of incubation)

Ac-GASTHVKFL-NH2 [STHV]
hydrolysis score from MALDI-TOF screening (37° C.): 0 (a score of 0 if no trace of the product of hydrolysis was seen after 8 hours of incubation) | hydrolysis score from MALDI-TOF screening (45° C.): 6 (a score of 6 for detection at 4 hours)

Ac-GASTHWKFL-NH2 [STHW]
hydrolysis score from MALDI-TOF screening (37° C.): 4 (a score of 4 for detection at 6 hours) | hydrolysis score from MALDI-TOF screening (45° C.): 6 (a score of 6 for detection at 4 hours)

Ac-GASTHYKFL-NH2 [STHY]
hydrolysis score from MALDI-TOF screening (37° C.): 0 (a score of 0 if no trace of the product of hydrolysis was seen after 8 hours of incubation) | hydrolysis score from MALDI-TOF screening (45° C.): 3 (a score of 3 for detection at 8 hours)

Ac-GASVHAKFL-NH2 [SVHA]
hydrolysis score from MALDI-TOF screening (37° C.): 0 (a score of 0 if no trace of the product of hydrolysis was seen after 8 hours of incubation) | hydrolysis score from MALDI-TOF screening (45° C.): 0 (a score of 0 if no trace of the product of hydrolysis was seen after 8 hours of incubation)

Ac-GASVHDKFL-NH2 [SVHD]
hydrolysis score from MALDI-TOF screening (37° C.): 0 (a score of 0 if no trace of the product of hydrolysis was seen after 8 hours of incubation) | hydrolysis score from MALDI-TOF screening (45° C.): 0 (a score of 0 if no trace of the product of hydrolysis was seen after 8 hours of incubation)

Ac-GASVHEKFL-NH2 [SVHE]
hydrolysis score from MALDI-TOF screening (37° C.): 0 (a score of 0 if no trace of the product of hydrolysis was seen after 8 hours of incubation) | hydrolysis score from MALDI-TOF screening (45° C.): 0 (a score of 0 if no trace of the product of hydrolysis was seen after 8 hours of incubation)

Ac-GASVHFKFL-NH2 [SVHF]
hydrolysis score from MALDI-TOF screening (37° C.): 0 (a score of 0 if no trace of the product of hydrolysis was seen after 8 hours of incubation) | hydrolysis score from MALDI-TOF screening (45° C.): 3 (a score of 3 for detection at 8 hours)

Ac-GASVHGKFL-NH2 [SVHG]
hydrolysis score from MALDI-TOF screening (37° C.): 0 (a score of 0 if no trace of the product of hydrolysis was seen after 8 hours of incubation) | hydrolysis score from MALDI-TOF screening (45° C.): 0 (a score of 0 if no trace of the product of hydrolysis was seen after 8 hours of incubation)

Ac-GASVHHKFL-NH2 [SVHH]
hydrolysis score from MALDI-TOF screening (37° C.): 3 (a score of 3 for detection at 8 hours) | hydrolysis score from MALDI-TOF screening (45° C.): 3 (a score of 3 for detection at 8 hours)

Ac-GASVHIKFL-NH2 [SVHI]
hydrolysis score from MALDI-TOF screening (37° C.): 3 (a score of 3 for detection at 8 hours) | hydrolysis score from MALDI-TOF screening (45° C.): 3 (a score of 3 for detection at 8 hours)

Ac-GASVHKKFL-NH2 [SVHK]
hydrolysis score from MALDI-TOF screening (37° C.): 3 (a score of 3 for detection at 8 hours) | hydrolysis score from MALDI-TOF screening (45° C.): 4 (a score of 4 for detection at 6 hours)

Ac-GASVHLKFL-NH2 [SVHL]
hydrolysis score from MALDI-TOF screening (37° C.): 3 (a score of 3 for detection at 8 hours) | hydrolysis score from MALDI-TOF screening (45° C.): 3 (a score of 3 for detection at 8 hours)

Ac-GASVHMKFL-NH2 [SVHM]
hydrolysis score from MALDI-TOF screening (37° C.): 0 (a score of 0 if no trace of the product of hydrolysis was seen after 8 hours of incubation) | hydrolysis score from MALDI-TOF screening (45° C.): 0 (a score of 0 if no trace of the product of hydrolysis was seen after 8 hours of incubation)

Ac-GASVHNKFL-NH2 [SVHN]
hydrolysis score from MALDI-TOF screening (37° C.): 0 (a score of 0 if no trace of the product of hydrolysis was seen after 8 hours of incubation) | hydrolysis score from MALDI-TOF screening (45° C.): 0 (a score of 0 if no trace of the product of hydrolysis was seen after 8 hours of incubation)

Ac-GASVHPKFL-NH2 [SVHP]
hydrolysis score from MALDI-TOF screening (37° C.): 0 (a score of 0 if no trace of the product of hydrolysis was seen after 8 hours of incubation) | hydrolysis score from MALDI-TOF screening (45° C.): 0 (a score of 0 if no trace of the product of hydrolysis was seen after 8 hours of incubation)

Ac-GASVHQKFL-NH2 [SVHQ]
hydrolysis score from MALDI-TOF screening (37° C.): 0 (a score of 0 if no trace of the product of hydrolysis was seen after 8 hours of incubation) | hydrolysis score from MALDI-TOF screening (45° C.): 0 (a score of 0 if no trace of the product of hydrolysis was seen after 8 hours of incubation)

Ac-GASVHRKFL-NH2 [SVHR]
hydrolysis score from MALDI-TOF screening (37° C.): 3 (a score of 3 for detection at 8 hours) | hydrolysis score from MALDI-TOF screening (45° C.): 3 (a score of 3 for detection at 8 hours)

Ac-GASVHSKFL-NH2 [SVHS]
hydrolysis score from MALDI-TOF screening (37° C.): 0 (a score of 0 if no trace of the product of hydrolysis was seen after 8 hours of incubation) | hydrolysis score from MALDI-TOF screening (45° C.): 0 (a score of 0 if no trace of the product of hydrolysis was seen after 8 hours of incubation)

Ac-GASVHTKFL-NH2 [SVHT]
hydrolysis score from MALDI-TOF screening (37° C.): 0 (a score of 0 if no trace of the product of hydrolysis was seen after 8 hours of incubation) | hydrolysis score from MALDI-TOF screening (45° C.): 0 (a score of 0 if no trace of the product of hydrolysis was seen after 8 hours of incubation)

Ac-GASVHVKFL-NH2 [SVHV]
hydrolysis score from MALDI-TOF screening (37° C.): 0 (a score of 0 if no trace of the product of hydrolysis was seen after 8 hours of incubation) | hydrolysis score from MALDI-TOF screening (45° C.): 3 (a score of 3 for detection at 8 hours)

Ac-GASVHWKFL-NH2 [SVHW]
hydrolysis score from MALDI-TOF screening (37° C.): 4 (a score of 4 for detection at 6 hours) | hydrolysis score from MALDI-TOF screening (45° C.): 4 (a score of 4 for detection at 6 hours)

Ac-GASVHYKFL-NH2 [SVHY]
hydrolysis score from MALDI-TOF screening (37° C.): 0 (a score of 0 if no trace of the product of hydrolysis was seen after 8 hours of incubation) | hydrolysis score from MALDI-TOF screening (45° C.): 3 (a score of 3 for detection at 8 hours)

Ac-GASWHAKFL-NH2 [SWHA]
hydrolysis score from MALDI-TOF screening (37° C.): 0 (a score of 0 if no trace of the product of hydrolysis was seen after 8 hours of incubation) | hydrolysis score from MALDI-TOF screening (45° C.): 3 (a score of 3 for detection at 8 hours)

Ac-GASWHDKFL-NH2 [SWHD]
hydrolysis score from MALDI-TOF screening (37° C.): 0 (a score of 0 if no trace of the product of hydrolysis was seen after 8 hours of incubation) | hydrolysis score from MALDI-TOF screening (45° C.): 0 (a score of 0 if no trace of the product of hydrolysis was seen after 8 hours of incubation)

Ac-GASWHEKFL-NH2 [SWHE]
hydrolysis score from MALDI-TOF screening (37° C.): 0 (a score of 0 if no trace of the product of hydrolysis was seen after 8 hours of incubation) | hydrolysis score from MALDI-TOF screening (45° C.): 0 (a score of 0 if no trace of the product of hydrolysis was seen after 8 hours of incubation)

Ac-GASWHFKFL-NH2 [SWHF]
hydrolysis score from MALDI-TOF screening (37° C.): 3 (a score of 3 for detection at 8 hours) | hydrolysis score from MALDI-TOF screening (45° C.): 4 (a score of 4 for detection at 6 hours)

Ac-GASWHGKFL-NH2 [SWHG]
hydrolysis score from MALDI-TOF screening (37° C.): 0 (a score of 0 if no trace of the product of hydrolysis was seen after 8 hours of incubation) | hydrolysis score from MALDI-TOF screening (45° C.): 3 (a score of 3 for detection at 8 hours)

Ac-GASWHHKFL-NH2 [SWHH]
hydrolysis score from MALDI-TOF screening (37° C.): 4 (a score of 4 for detection at 6 hours) | hydrolysis score from MALDI-TOF screening (45° C.): 3 (a score of 3 for detection at 8 hours)

Ac-GASWHIKFL-NH2 [SWHI]
hydrolysis score from MALDI-TOF screening (37° C.): 6 (a score of 6 for detection at 4 hours) | hydrolysis score from MALDI-TOF screening (45° C.): 12 (a score of 12, if it was seen to be partially hydrolysed at 2 hours)

Ac-GASWHKKFL-NH2 [SWHK]
hydrolysis score from MALDI-TOF screening (37° C.): 4 (a score of 4 for detection at 6 hours) | hydrolysis score from MALDI-TOF screening (45° C.): 12 (a score of 12, if it was seen to be partially hydrolysed at 2 hours)

Ac-GASWHLKFL-NH2 [SWHL]
hydrolysis score from MALDI-TOF screening (37° C.): 6 (a score of 6 for detection at 4 hours) | hydrolysis score from MALDI-TOF screening (45° C.): 12 (a score of 12, if it was seen to be partially hydrolysed at 2 hours)
